The nature of test [1]: DPPH radical scavenging. Conditions: for IC50: DPPH scavenging. On the procedure:
The synthetic Schiff base ligand and its metal complexes were tested for their ability to scavenge DPPH radicals using the methodology described by Soare, Dinis, Cunha, and Almeida in 1997[64]. Initially, 1 mL of 0.2 mM DPPH dissolved in methanol was combined with 0.1 mL of each sample at 250, 500, 750, and 1000 µg/mL concentrations. For 20 min, the reaction mixture was kept at 28 °C and kept in the dark. Methanol served as the control, which had all the components but no sample. A UV/Vis spectrophotometer was used to detect the absorbance at 517 nm in order to assess the DPPH radical scavenging activity. For comparison, the DPPH radical scavenging capacity of ascorbic acid was also determined. %Inhibitioneffect=Ac-As/Ac×100
Ac = Absorbance by the control, As = Absorbance by the sample[37].
For orientation: Loss of DPPH colour is used to gauge radical scavenging.

A further test has as its target T1, β-glucuronidase enzyme (Bos taurus, UniProt A3KMY8).
T1 sequence (A3KMY8 24-652): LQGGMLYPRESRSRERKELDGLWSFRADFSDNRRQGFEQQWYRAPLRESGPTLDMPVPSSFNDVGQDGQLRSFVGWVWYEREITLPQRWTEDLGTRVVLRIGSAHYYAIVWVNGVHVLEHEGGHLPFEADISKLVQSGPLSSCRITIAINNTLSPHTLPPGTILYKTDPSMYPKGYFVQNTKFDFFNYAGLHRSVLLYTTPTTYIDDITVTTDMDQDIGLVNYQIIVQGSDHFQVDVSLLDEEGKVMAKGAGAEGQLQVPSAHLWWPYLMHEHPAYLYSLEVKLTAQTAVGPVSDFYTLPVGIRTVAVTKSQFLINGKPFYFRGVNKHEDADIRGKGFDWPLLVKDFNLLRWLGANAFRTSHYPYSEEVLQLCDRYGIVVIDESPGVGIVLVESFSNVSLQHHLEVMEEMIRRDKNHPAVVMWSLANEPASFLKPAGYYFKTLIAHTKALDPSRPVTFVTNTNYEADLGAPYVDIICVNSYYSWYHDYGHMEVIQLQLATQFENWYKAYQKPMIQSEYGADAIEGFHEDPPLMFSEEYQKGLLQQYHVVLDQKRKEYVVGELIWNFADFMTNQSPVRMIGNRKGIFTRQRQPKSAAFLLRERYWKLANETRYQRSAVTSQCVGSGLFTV
Nature of the test: β-Glucuronidase inhibitory activity (p-nitrophenyl-β-D-glucuronide, 405 nm). In kind it is biochemical. Conditions: Conc. 0.05 mM. As to the method: β-Glucuronidase inhibitory activity by hydrazide Schiff base ligand (H-AHMB) and its metal (II) complexes was investigated using standard procedure. […] According to the procedure 185 µL of 0.1 M acetate buffer, 5 µL compound to be tested and 10 µL of enzyme solution were mixed and incubated at 37 °C for 30 min. SpectraMax plus 384, Molecular Devices, USA was used to read on a multiplate reader at 405 nm after the addition of 0.4 mM p-nitrophenyl-β-D-glucuronide (50 µL). All experiments were performed in triplicate.

Test [2] in a line: DPPH radical scavenging. The settings on record: Conc. 0.05 mM.
The test system of the next test is β-glucuronidase. The settings on record: cited from earlier work.

The molecule “Cobalt adduct with N′-[(4-hydroxy-3-methoxyphenyl)methylidene] 2-aminobenzohydrazide [Co-AHMB]” came in with an IC50 in “DPPH radical scavenging [1]” of 98.2 ± 1.78 µM. Also, on β-glucuronidase enzyme, the “% inhibition” value was 78.8%. The “% Radical scavenging activity” value in the test “DPPH radical scavenging [2]” was determined as 88.46%.
As to `O=C[C@H](O)[C@H]1OC(=O)[C@@H](O)[C@H]1O` [D-glucurono-γ-lactone], the “inhibition of the β-glucuronidase enzyme” value with β-glucuronidase is listed as “marked inhibition”.
As to “Nickel adduct with N′-[(4-hydroxy-3-methoxyphenyl)methylidene] 2-aminobenzohydrazide [Ni-AHMB]”, the IC50 in the test “DPPH radical scavenging [1]” was 467 ± 2.9 µM. For the same molecule, the “% inhibition” value on β-glucuronidase enzyme is recorded as 96.0%. In addition, in the test “DPPH radical scavenging [2]”, the “% Radical scavenging activity” value turned out to be 52.40%.
As for “Zinc adduct with N′-[(4-hydroxy-3-methoxyphenyl)methylidene] 2-aminobenzohydrazide [Zn-AHMB]”, on β-glucuronidase enzyme, the “% inhibition” value is listed as 98.3%. For the same molecule, the “% Radical scavenging activity” value in the test “DPPH radical scavenging [2]” is recorded as 49.16%.
As to “Copper adduct with N′-[(4-hydroxy-3-methoxyphenyl)methylidene] 2-aminobenzohydrazide [Cu-AHMB]”, in “DPPH radical scavenging [1]”, half-maximal inhibition (IC50) was put at 183 ± 6.6 µM. On β-glucuronidase enzyme, the “% inhibition” value was determined as 73.3%. Moreover, in the test “DPPH radical scavenging [2]”, the “% Radical scavenging activity” value was 84.29%.
As for `CC(=O)O[C@@H]1C(=O)O[C@H]2[C@@H]1OC(=O)[C@@H]2OC(C)=O` [2,5-di-O-acetyl-D-glucaro-1,4:6,3-Dilactone], in the test on β-glucuronidase, the “inhibition of the β-glucuronidase enzyme” value was “marked inhibition”.
As for `O=C1OC(C(O)C(=O)O)C(O)C1O` [D-saccharic acid-1,4-lactone, reference compound], the “% inhibition” value on β-glucuronidase enzyme stood at 89.4%.
In the case of `O=C(O)c1cc(O)c(O)c(O)c1` [Gallic acid, reference compound], in “DPPH radical scavenging [1]”, the IC50 came out at 63 ± 0.43 µM. Also, the “% Radical scavenging activity” value in “DPPH radical scavenging [2]” came out at 93.13%.
For the molecule `COc1cc(C=NNC(=O)c2ccccc2N)ccc1O` [H-AHMB, N′-[(4-hydroxy-3-methoxyphenyl)methylidene] 2-aminobenzohydrazide], the “antioxidant potential against DPPH free radicals (in words)” value in “DPPH radical scavenging [1]” is “inactive”. Besides, the “% Radical scavenging activity” value in “DPPH radical scavenging [2]” came out at 22.97%.

The term IC50 denotes the concentration at which inhibition is half-maximal. In general, % inhibition refers to the share of the control response that was lost under treatment.
